Data: patent US20190343796A1, “COMPOSITION FOR EXTERNAL USE” (FUJIFILM Toyama Chemical Co., Ltd., priority 2016, published 2019)

Assay: Solubility of maleate of compound A in representative solvents
Format: physicochemical
Description: Among these solvents, a solvent having a high solubility of compound A and a salt thereof is preferred.

With `OC1CN(CCCOCCc2ccc3sccc3c2)C1` [maleate of compound A, 1-(3-(2-(1-benzothiophen-5-yl)ethoxy)propyl)azetidin-3-ol] the “Solubility of maleate of compound A at 25° C.” value (“Solubility” below) (Benzyl alcohol, 25° C.) was 35 g/100 g of solvent, the “Solubility” value (Butylene glycol, 25° C.) was 5 g/100 g of solvent and the “Solubility” value (Dimethyl sulfoxide, 25° C.) was >50 g/100 g of solvent. For the same compound, the “Solubility” value (Dipropylene glycol, 25° C.) was 8 g/100 g of solvent, the “Solubility” value (Ethanol, 25° C.) was 3 g/100 g of solvent and the “Solubility” value (N-methyl-2-pyrrolidone, 25° C.) was >50 g/100 g of solvent. The “Solubility” value (Polyethylene glycol 200, 25° C.) was 10 g/100 g of solvent, the “Solubility” value (Polyethylene glycol 400, 25° C.) was 16 g/100 g of solvent and the “Solubility” value (Propylene glycol, 25° C.) was 10 g/100 g of solvent.
